Patent US7772425B2, “Vitamin D receptor modulators” (Eli Lilly and Company, priority 2002, dated 2010)
Several values for one entry are separate records, joined by “and”; a condition that tells them apart may be missing. Equal values may be shown once. Read-outs that look alike come from different tables or passages of the source.

Key:
rat osteocalcin promoter = test: OCN (osteocalcin) promoter assay in RG-15 (ROS 17/2.8) cells; format: cell-based; conditions: 48 hr treatment, luciferase
Protocol: 3. The OCN (Osteocalcin) Promoter Assay
The OCN Promoter Assay is an indicator and marker for osteoporosis. […] Preferred assay results are less than 50 nM.
(3) Materials and Method for The OCN Promoter Assay:
The activation of osteocalcin by VDR ligands was evaluated in a rat osteoblast-like cell line RG-15 (ROS 17/2.8) stably expressing rat osteocalcin promoter fused with luciferase reporter gene. […] Confluent RG-15 cells maintained in DMEM/F-12 medium (3:1) containing 5% FBS, 300 μg/ml G418 and at 37° C. under 5% CO2/95% air atmosphere were trypsinized (0.25% trypsin) and plated into white opaque 96-well cell culture plates (25000 cells/well). After 24 hr, cells (in DMEM/F-12 medium+2% FBS) were treated with various concentrations of compounds, dissolved in DMSO. The final DMSO concentration remained at 0.01% (v/v). After 48 hr treatment, the medium was removed, cells were lysed with 50 μl of lysis buffer (From Luciferase reporter assay system, Roche Diagnostics, Indianapolis, Ind.) and assayed for luciferase activity using the Luciferase Reporter Gene Assay kit from Boehringer Mannheim as per manufacturer's specifications.

[1] = test system: KERtr cells (Human skin keratinocyte); test: Keratinocyte proliferation assay; format: cell-based; conditions: BrdU incorporation, read-out: Kera. Prolif. IC50
Protocol: 5. The Keratinocyte Proliferation Assay
This Assay is indicative for the treatment of psoriasis.
(5) The Keratinocyte Proliferation Assay:
KERtr cells (Human skin keratinocyte transformed with a retrovirus vector, obtained from ATCC) were plated in 96-well flat-bottomed plates (3000 cells/well) in 100 μl keratinocyte serum free medium supplemented with bovine pituitary extract in the absence of EGF (Life Technologies, Rockville, Md.) and incubated at 37° C. for two days. The cells were treated with various concentrations of VDR ligands (ten-fold serial dilution from 10,000 nM to 0.1 nM in triplicate), dissolved in 100 μl keratinocyte serum free medium supplemented with bovine pituitary extract in the absence of EGF and incubated at 37° C. for 72 hr. BrdU (5-bromo-2′-deoxyuridine) incorporation was analyzed as a measure of DNA replication (Cell proliferation ELISA kit, Roche Diagnostics, Indianapolis, Ind.) and absorbance was measured at 405 nm. Potency values (IC50) values were determined as the concentration (nM) of compound that elicited a half-maximal response.

female DBF mice = test: Mouse hypercalcemia assay; format: in vivo; conditions: orally via gavage for 6 days; serum ionized calcium 6 hours after last dosing
Description: 4. The Mouse Hypercalcemia Assay
(4) Materials and Method for The Mouse Hypercalcemia Assay: […]

[2] = Homo sapiens, Keratinocyte, 72 h

Compound | EC50 (rat osteocalcin promoter; Rattus norvegicus, 48 h) [nM] | EC50 (rat osteocalcin promoter) | Mouse Hypercal (female DBF mice) [µg/kg/day] | further results
CCC(CC)(c1ccc(OCC(O)C(C)(C)C)c(C)c1)c1ccc(C(=O)OC)c(C)c1 (racemic) [Ex. 1, 3′-[4-(2-hydroxy-3,3-dimethylbutoxy)-3-methylphenyl]-3′-[4-methoxycarbonyl-3-methylphenyl]pentane] | 21 |  |  | 
CCC(CC)(c1ccc(OC(C)C(O)C(C)(C)C)c(C)c1)c1ccc(C(=O)O)c(C)c1 (racemic) [Ex. 28, 4-{1-Ethyl-1-[4-(2-hydroxy-1,3,3-trimethyl-butoxy)-3-methyl-phenyl]-propyl}-2-methyl-benzoic acid] | 106 | 84 nM |  | IC50 [1, 2]: 240 nM
CCC(CC)(c1ccc(C(=O)O)cc1)c1ccc(OCC(O)C(C)(C)C)c(Cl)c1 (racemic) [Ex. 35, 3′-[3-chloro-4-(2-hydroxy-3,3-dimethylbutoxy)phenyl]-3′-[4-carboxyphenyl]pentane] | 27 |  |  | IC50 [1, 2]: 40 nM
CCC(CC)(c1ccc(C(=O)O)c(C)c1)c1ccc(OCC(O)C(C)(C)C)c(Cl)c1 (racemic) [Ex. 38, 3′-[3-chloro-4-(2-hydroxy-3,3-dimethylbutoxy)phenyl]-3′-[3-methyl-4-(carboxy)phenyl]pentane] | 41 |  |  | 
CCC(CC)(c1ccc(OCC(O)C(C)(C)C)c(C)c1)c1ccc(C(=O)O)c(Cl)c1 (racemic) [Ex. 39, 3′-[3-methyl-4-(2-hydroxy-3,3-dimethylbutoxy)phenyl]-3′-(3-chloro-4-carboxyphenyl)pentane] | 74 | 61 nM |  | IC50 [1, 2]: 508 nM
CCC(CC)(c1ccc(CCC(O)C(C)(C)C)c(C)c1)c1ccc(C(=O)O)c(C)c1 (racemic) [Ex. 55, 3′-[4-(3-hydroxy-4,4-dimethylpentyl)-3-methylphenyl]-3′-[4-carboxyl-3-methylphenyl]pentane] | 6 |  |  | 
CCC(CC)(c1ccc(OCC(O)C(C)(C)C)c(C)c1)c1ccc(C(=O)O)c(C)c1 (single isomer, unassigned) [Ex. 3A] |  | 15 nM and 18 nM | 1000 | 
CCC(CC)(c1ccc(OCC(O)C(C)(C)C)c(C)c1)c1ccc(C(=O)O)c(C)c1 (single isomer, unassigned) [Ex. 3B] |  | 57 nM and 83 nM | 3000 | 
CCC(CC)(c1ccc(OCC(O)C(C)(C)C)c(C)c1)c1ccc(C(=O)OC)c(C)c1 (single isomer, unassigned) [Ex. 4A, 3′-[4-(2-hydroxy-3,3-dimethylbutoxy)-3-methylphenyl]-3′-[4-methoxycarbonyl-3-methylphenyl]pentane] |  | 3 nM |  | 
CCC(CC)(c1ccc(OCC(O)C(C)(C)C)c(C)c1)c1ccc(C(=O)OC)c(C)c1 (single isomer, unassigned) [Ex. 4B, 3′-[4-(2-hydroxy-3,3-dimethylbutoxy)-3-methylphenyl]-3′-[4-methoxycarbonyl-3-methylphenyl]pentane] |  | 15 nM |  | 
CCC(CC)(c1ccc(OC(C)C(O)C(C)(C)C)c(C)c1)c1ccc(C(=O)OC)c(C)c1 (single isomer, unassigned) [Ex. 10Da, 3′-[4-(2-hydroxy-1,3,3-trimethylbutoxy)-3-methylphenyl]-3′-[4-methoxycarbonyl-3-methylphenyl]pentane] |  |  |  | IC50 [1, 2]: 1000 nM
CCC(CC)(c1ccc(OC(C)C(O)C(C)(C)C)c(C)c1)c1ccc(C(=O)O)c(C)c1 (single isomer, unassigned) [Ex. 12] |  | 20 nM and 25 nM | 4000 | 
CCC(CC)(c1ccc(OCC(O)C(C)(C)C)c(C)c1)c1ccc(C(=O)Nc2nnn[nH]2)c(C)c1 (single isomer, unassigned) [Ex. 12b, 3′-[4-(2-hydroxy-3,3-dimethylbutoxy)-3-methylphenyl]-3′-[4-(tetrazol-5-ylaminocarbonyl)-3-methylphenyl]pentane] |  | 13 nM and 23 nM | 300 | 
CCC(CC)(c1ccc(OCC(O)C(C)(C)C)c(C)c1)c1ccc(C(=O)NCCS(C)(=O)=O)c(C)c1 (single isomer, unassigned) [Ex. 15B, 4-{1-ethyl-1-[4-(2-hydroxy-3,3-dimethylbutoxy)-3-methylphenyl]propyl}-N-(2-methanesulfonylethyl)-2-methylbenzamide] |  | 163 nM |  | 
CCC(CC)(c1ccc(OCC(O)C(C)(C)C)c(C)c1)c1ccc(C(=O)Nc2nnn[nH]2)c(C)c1 (single isomer, unassigned) [Ex. 27, 3′-[4-(2-hydroxy-3,3-dimethylbutoxy)-3-methylphenyl]-3′-[4-(tetrazol-5-ylaminocarbonyl)-3-methylphenyl]pentane] |  | 13 nM and 23 nM | 300 | 
CCC(CC)(c1ccc(OCC(O)C(C)(C)C)c(Cl)c1)c1ccc(C(=O)O)c(Cl)c1 (single isomer, unassigned) [Ex. 41, 3′-[3-chloro-4-(2-hydroxy-3,3-dimethyl-butoxy)phenyl]-3′-(3-chloro-4-carboxyphenyl)pentane] |  | 421 nM |  | 
CCC(CC)(c1ccc(OCC(O)C(C)(C)C)c(Cl)c1)c1ccc(C(=O)O)c(Cl)c1 (single isomer, unassigned) [Ex. 42, 3′-[3-chloro-4-(2-hydroxy-3,3-dimethyl-butoxy)phenyl]-3′-(3-chloro-4-carboxyphenyl)pentane] |  |  |  | IC50 [1, 2]: 50 nM
CCC(CC)(c1ccc(OC[C@@H](O)C(C)(C)C)c(C)c1)c1ccc(C(=O)NCCS(C)(=O)=O)c(C)c1 (stereo in doubt) [Ex. 14, 4-{1-ethyl-1-[4-(2-hydroxy-3,3-dimethylbutoxy)-3-methylphenyl]propyl}-N-(2-methanesulfonylethyl)-2-methylbenzamide] | 306 |  | 3000 | 
CCC(CC)(c1ccc(OC[C@@H](O)C(C)(C)C)c(C)c1)c1ccc(C(=O)NCC(=O)O)c(C)c1 (stereo in doubt) [Ex. 24, (4-{1-ethyl-1-[4-(2-hydroxy-3,3-dimethylbutoxy)-3-methylphenyl]-propyl}-2-methylbenzoylamino)acetic acid] | 0.2 |  |  | 
C=C1/C(=C\C=C2/CCC[C@]3(C)[C@@H]([C@H](C)CCCC(C)(C)O)CC[C@@H]23)C[C@@H](O)C[C@@H]1O [AA, 1α,25-dihydroxyvitamin D3, reference compound] |  |  | 0.06 | 
CCC(CC)(c1ccc(OCC(O)CO)c(C)c1)c1ccc(OCC(O)C(C)(C)C)c(C)c1 (stereo not shown) [BB, 3-(4-{1-Ethyl-1-[4-(2-hydroxy-3,3-dimethyl-butoxy)-3-methyl-phenyl]-propyl}-2-methyl-phenoxy)-propane-1,2-diol, reference compound] |  |  | 20 | 
Cc1cc(C2(c3ccc(OCC(=O)C(C)(C)C)c(C)c3)CCCCC2)ccc1OCC(=O)C(C)(C)C [CC, 1-(4-{1-[4-(3,3-Dimethyl-2-oxo-butoxy)-3-methyl-phenyl]-cyclohexyl}-2-methyl-phenoxy)-3,3-dimethyl-butan-2-one, reference compound] | > 1000 |  |  | 
CCC(CC)(c1ccc(OCC(=O)C(C)(C)C)c(C)c1)c1ccc(OC[C@H](O)C(C)(C)C)c(C)c1 [EE, reference compound] | 341 |  | 1000 | 
CCC(CC)(c1ccc(CNCCS(C)(=O)=O)c(C)c1)c1ccc(OCC(=O)C(C)(C)C)c(C)c1 [Ex. 13, 1-[4-(1-ethyl-1-{4-[(2-methanesulfonyl-ethylamino)-methyl]-3-methyl-phenyl}-propyl)-2-methyl-phenoxy]-3,3-dimethyl-butan-2-one] | 89 | 167 nM | 3000 | 
CCC(CC)(c1ccc(OCC(=O)C(C)(C)C)c(C)c1)c1ccc(C(=O)NCCS(C)(=O)=O)c(C)c1 [Ex. 16, 4-{1-[4-(3,3-dimethyl-2-oxobutoxy)-3-methylphenyl]-1-ethylpropyl}-N-(2-methanesulfonylethyl)-2-methylbenzamide] | 35 |  | >5000 | 
CCC(CC)(c1ccc(OC(C)C(O)C(C)(C)C)c(C)c1)c1ccc(C(=O)N[C@@H](C)C(=O)O)c(C)c1 (stereo partly shown) [Ex. 49, (L)-2-(4-{1-Ethyl-1-[4-(2-hydroxy-1,3,3-trimethyl-butoxy)-3-methyl-phenyl]-propyl}-2-methyl-benzoylamino)-propionic acid] |  |  |  | IC50 ([1]; 72 hr): 1000 nM
CCC(CC)(c1ccc(CCC(=O)C(C)(C)C)c(C)c1)c1ccc(C(=O)O)c(C)c1 [Ex. 54, 3′-[4-(3-oxo-4,4-dimethylpentyl)-3-methylphenyl]-3′-[4-carboxyl-3-methylphenyl]pentane] | 119 |  | >3000 | 
